Measured values as given in patent US11052157B2 (priority 2014, dated 2021).
Where a name gives a salt, the structure may show the parent alone. Blank lines part the entries; values can stand above or below the compound they belong to.

Tests used:
[1] = Fluorescence readings of doxorubicin loading solutions with folic acid (plate reader); format: physicochemical; conditions: for % Fluorescence Em λ590 nm / % Fluorescence Em λ620 nm: excitation 485 nm
Experimental: The solutions were incubated at room temperature overnight and then were filtered through a 0.1 μm filter, to sterilize the solutions and to remove any particulates.
On the following day the fluorescence of an aliquot of each solution was measured with a fluorescence plate reader (excitation wavelength: 485 nm, emission wavelengths: 590 nm and 620 nm). Concomitantly, minicells were washed with PBS buffer and then were loaded with one or another of each of the Dox+FA solutions, previously prepared at a density of 2.5×10^10 minicells/ml, in a volume between about 1 ml to 2 mls. Samples (500 μl) were taken from each of the treatment groups at the time points of 30 minutes, 1 hour, 2 hours, 4 hours, 6 hours, and overnight.

[2] = test system: MDA-MB-468 human breast cancer cells; experiment: Incubation of non-targeted doxorubicin-loaded minicells (small-scale protocol) with cancer cells, confocal microscopy; format: cell-based; conditions: 1×10^8 non-targeted doxorubicin-loaded minicells (small-scale protocol), 10^4 cells per well; within two days
Experimental: Upon overnight incubation with the drug (about 1 ml/mg) at 37° C. with rotation, the loaded minicells were subjected five times to a washing step that entailed centrifugation (13,200 rpm, 10 minutes) and resuspension of the resultant pellet in 1 ml BSG buffer (pH 7.4).
The washed, doxorubicin-loaded minicells (1×10^8) then were incubated with estrogen receptor-negative MDA-MB-468 human breast cancer cells (10^4 cells per well) in Gibco RPMI-1640 tissue culture medium (in 0.5 ml per well) supplemented with 10% Fetal Bovine Serum, 2 mM L-glutamine, and 100 U/ml of both penicillin G and streptomycin.
The cells were monitored subsequently every 24 hours via confocal microscopy.

[3] = test system: intact, bacterially derived minicells; experiment: Flow cytometry of dye-packaged minicells (FL1 channel); parameters: species or system Salmonella enterica serovar Typhimurium; conditions: BacLight Green 200 nM, 30 minutes, room temperature
Experimental: (§1) Minicells packaged with BacLight™ Green were analyzed by flow cytometry (Beckman Coulter FC500). Empty minicells and BacLight™ Green-packaged minicells were labeled with an anti-LPS alexa fluor 647 (AF647) antibody. Firstly, the minicells were analyzed using the FL4 channel to detect anti-LPS AF647-stained minicells. The minicell population was visualized in a dot plot using FL4 fluorescence versus forward scatter, and the population was gated to select anti-LPS AF647 stained minicells only, disregarding any debris.
The gated population was analyzed on the FL1 channel, to detect BacLight™ Green fluorescence.
as §1, with “loaded” for “packaged”, “SYTO 9®” for “BacLight™ Green”, “SYTO® 9-stained” for “BacLight™ Green-packaged”, “plot,” for “plot”, “AF647-stained” for “AF647 stained”, “debris. The gated population then was analyzed on the FL1 channel, to detect SYTO 9 fluorescence.” for “debris.”

[4] = cited from earlier work

% Fluorescence Em λ590 nm ([1]; 0 μg/ml FA, Dox 100 pg/ml in PBS): 100%
% Fluorescence Em λ620 nm ([1]; 0 μg/ml FA): 100%
% Fluorescence Em λ590 nm ([1]; 50 μg/ml FA): 93%
% Fluorescence Em λ620 nm ([1]; 50 μg/ml FA): 94%
doxorubicin emission fluorescence lost ([1]; 50 μg/ml folic acid): 6-7%
% Fluorescence Em λ590 nm ([1]; 400 μg/ml FA): 61%
% Fluorescence Em λ620 nm ([1]; 400 μg/ml FA): 59%
doxorubicin fluorescence emission signal lost ([1]; 400 μg/ml of folic acid): ~40%
Compound: doxorubicin
doxorubicin entry into cancer cells (confocal microscopy) [2]: red fluorescence in their nuclei

Compound: CN1C(=CC=Cc2n(Cc3ccc(CCl)cc3)c3cc(Cl)c(Cl)cc3[n+]2Cc2ccc(CCl)cc2)Oc2ccccc21.[Cl-] [BacLight™ Green]
minicells that are fluorescent [3]: greater than 95%

Compound: O=C1c2c(O)ccc(O)c2C(=O)c2c(NCCNCCO)ccc(NCCNCCO)c21 [MTX, mitoxantrone dihydrochloride]
solubility in water [4]: 5000 to 7500 µg/mL
